Experiments:
[1] = system: P. falciparum male gametocytes; assay: P. falciparum Dual Gamete Formation Assay (PfDGFA), male readout (exflagellation); format: cell-based, Plasmodium falciparum NF54; details: for Average inhibition male (%): average of replicates; for % inhibition male (individual replicates) R1: replicate R1; for % inhibition male (individual replicates) R3: replicate R3; for % inhibition male (individual replicates) R4: replicate R4; for Activity: hit = >50% inhibition in male or female readout in at least 3 replicates, 0 = no class assigned
Summary of the method: (§1)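 NF54 mature gametocytes (d14), cpd 24 h 37°C hypoxic gas; trigger: xanthurenic acid ookinete medium + Cy3 anti-Pfs25, 4°C 4 min → 28°C 4 min. Male: exflagellation centres, brightfield x6. Female: Pfs25+ gametes, fluorescence, +24 h 28°C dark.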

[2] = system: P. falciparum female gametocytes; assay: P. falciparum Dual Gamete Formation Assay (PfDGFA), female readout (Pfs25-positive female gametes); format: cell-based, Plasmodium falciparum NF54; details: for Average inhibition female (%): average of replicates; for % inhibition female (individual replicates) R1: replicate R1; for % inhibition female (individual replicates) R3: replicate R3; for % inhibition female (individual replicates) R4: replicate R4
Summary of the method: as §1

[3] = 2µM, 24h preincubation with gametocytes prior to induction of gametogenesis
[4] = 2µM, 24h preincubation, hits selected on >50% inhibition in the male readout across replicates
[5] = PfDGFA at 2µM, 24h preincubation
[6] = 2µM, 24h preincubation, hits selected on >50% inhibition in the female readout across replicates
[7] = PfDGFA at 2µM, 24h preincubation with gametocytes
[8] = 2µM, 24h preincubation, number of replicates with >50% inhibition in the male readout
[9] = 2µM, 24h preincubation, number of replicates with >50% inhibition in the female readout
[10] = PfDGFA at 2µM, 24h preincubation with gametocytes prior to induction of gametogenesis

Structure (SMILES)	Average inhibition male (%) [1, 3] [%]	% inhibition male (individual replicates) R1 [1, 3] [%]	% inhibition male (individual replicates) R3 [1, 3] [%]	% inhibition male (individual replicates) R4 [1, 3] [%]	Average inhibition female (%) [2, 3] [%]	% inhibition female (individual replicates) R1 [2, 3] [%]	% inhibition female (individual replicates) R3 [2, 3] [%]	% inhibition female (individual replicates) R4 [2, 3] [%]	HitlevelM [1, 8]	HitlevelF [2, 9]	other results
CC(=O)N(Cc1ccc(CC(C)NCCc2cccc(Cl)c2)cc1)Cc1ccc(CC(C)NCCc2cccc(Cl)c2)cc1 (stereo not drawn) [TCMDC-139678]	26.9	39.1	19.2	27.9	14.1	15.3	11.1	16.3			HitlevelM [1, 4]: 0; Activity [1, 5]: 0; HitlevelF [2, 6]: 0
COc1ccc(CCNC(C)Cc2ccc(C(=O)Nc3ccc(CC(C)NCCc4cccc(Cl)c4)cc3)cc2)cc1 (stereo not drawn) [TCMDC-139750]											Average inhibition male (%) [1, 7]: 69.1%; % inhibition male (individual replicates) R1 [1, 7]: 78.2%; % inhibition male (individual replicates) R3 [1, 7]: 37.9%; % inhibition male (individual replicates) R4 [1, 7]: 84.9%; HitlevelM ([1]; number of replicates with >50% inhibition in the male readout, 2µM): 3; Average inhibition female (%) [2, 7]: 25.6%; % inhibition female (individual replicates) R1 [2, 7]: 25.4%; % inhibition female (individual replicates) R3 [2, 7]: 18.2%; % inhibition female (individual replicates) R4 [2, 7]: 15.5%; HitlevelF ([2]; number of replicates with >50% inhibition in the female readout, 2µM): 0
CC(CCCC(=O)Nc1ccc(CC(C)NCCc2cccc(Cl)c2)cc1)NCCc1cccc(Cl)c1 (stereo not drawn) [TCMDC-139798]	45.7	47.5	7.0	68.9	14.3	14.3	3.2	8.4			HitlevelM [1, 4]: 2; Activity [1, 5]: 0; HitlevelF [2, 6]: 0
CC(CCCCCC(=O)Nc1ccc(CC(C)NCCc2cccc(Cl)c2)cc1)NCCc1cccc(Cl)c1 (stereo not drawn) [TCMDC-139800]	45.2	25.8	-13.9	77.6	20.4	18.8	1.8	5.6	2	1	
CCOc1ccccc1CCNC(C)Cc1ccc(C(=O)Nc2ccc(CC(C)NCCc3cccc(Cl)c3)cc2)cc1 (stereo not drawn) [TCMDC-139805]	59.5	59.5	21.2	86.9	24.4	22.1	9.3	29.9	3	0	
CC(Cc1ccc(COc2ccc(CC(CO)NCCc3cccc(Cl)c3)cc2)cc1)NCCc1cccc(Cl)c1.Cl (stereo not drawn) [TCMDC-139844]											% inhibition male (individual replicates) R1 [1, 10]: -13.5%; % inhibition male (individual replicates) R3 [1, 10]: 14.9%; % inhibition male (individual replicates) R4 [1, 10]: 2.8%; Average inhibition male (%) [1, 5]: 1.7%; % inhibition female (individual replicates) R1 [2, 10]: -3.0%; % inhibition female (individual replicates) R3 [2, 10]: -11.7%; % inhibition female (individual replicates) R4 [2, 10]: 12.8%; Average inhibition female (%) [2, 5]: 1.7%
CC(Cc1ccc(NC(=O)c2ccc(CNCCc3ccccc3)cc2)cc1)NCCc1cccc(Cl)c1.Cl (stereo not drawn) [TCMDC-139867]	35.8	30.2	5.8	68.9	17.5	19.8	17.3	1.2			HitlevelM [1, 4]: 1; Activity [1, 5]: 0; HitlevelF [2, 6]: 0
CCCCCCCN1CC[C@@H](CCCc2ccnc3ccc(OC)cc23)[C@@H](CNC)C1.O=C(O)C(=O)O [TCMDC-139875]	45.5	37.4	18.3	73.6	34.8	28.9	7.1	50.9	2	2	
COc1ccc(OC)c(C=CC(=O)NC2CCC(CN3CCC(c4c[nH]c5ccccc45)CC3)CC2)c1 (stereo not drawn) [TCMDC-139893]											% inhibition male (individual replicates) R1 [1, 10]: 4.2%; % inhibition male (individual replicates) R3 [1, 10]: -21.0%; % inhibition male (individual replicates) R4 [1, 10]: 20.2%; Average inhibition male (%) [1, 5]: 1.9%; % inhibition female (individual replicates) R1 [2, 10]: 6.5%; % inhibition female (individual replicates) R3 [2, 10]: -21.7%; % inhibition female (individual replicates) R4 [2, 10]: -6.1%; Average inhibition female (%) [2, 5]: -1.6%
CN(C)CCCNCc1ccc(-c2ccc(C(F)(F)F)cc2)cc1 [TCMDC-140011]	54.2	60.9	33.7	61.6	26.9	39.3	-6.8	25.9	3	0	
OCc1c(Cl)cc(Cl)cc1CNCCCNc1nc2ccccc2[nH]1 [TCMDC-140012]											% inhibition male (individual replicates) R1 [1, 10]: -9.5%; % inhibition male (individual replicates) R4 [1, 10]: -7.6%; Average inhibition male (%) [1, 5]: -5.6%; % inhibition female (individual replicates) R1 [2, 10]: -1.6%; % inhibition female (individual replicates) R3 [2, 10]: -10.9%; % inhibition female (individual replicates) R4 [2, 10]: -3.1%; Average inhibition female (%) [2, 5]: -6.6%
Nc1ccc2[nH]cc(C3CCN(CCC4CCN(C(=O)/C=C/c5ccc(Cl)c(Cl)c5)CC4)CC3)c2n1 [TCMDC-140062]	34.7	41.7	-5.5	54.9	24.0	25.9	21.4	19.8	1	0	
O=C(/C=C/c1ccc(Cl)c(Cl)c1)N1CCC(CN2CCC(c3c[nH]c4ccncc34)CC2)CC1 [TCMDC-140074]	29.9	24.9	-2.0	40.2	19.7	24.3	8.2	6.7	1	0	
